Laboratory results taken from patent US8354433B2, “Anti-inflammatory agents as virostatic compounds” (4SC AG, priority 2009, dated 2013).
pEC50, pIC50: −log10 of the molar value. Like-named read-outs stand apart in the source and are kept apart here.

Legend:
[1] = test system: HBV; assay: Anti-HBV evaluation with HepG2 2.2.15 cells (extracellular HBV DNA, qPCR); type: cell-based; details: Hepatitis B virus, read-out: Antiviral Activity EC50
Method: Compounds were solubilized in DMSO in a concentration of 40 mM. (−)-2′-Desoxy-3′-thiacytidin (3TC) was used as the positive antiviral controls. The high-test concentrations were 10 μM for 4SC compounds and 1 μM for 3TC.
Briefly, HepG2-2.2.15 cells were plated in 96-well microtiter plates. Only the interior wells were utilized to reduce “edge effects” observed during cell culture; the exterior wells were filled with complete medium to help minimize sample evaporation. After 16-24 hours the confluent monolayer of HepG2-2.2.15 cells was washed and the medium was replaced with complete medium containing various concentrations of a test compound in triplicate. 3TC was used as the positive control, while media alone was added to cells as a negative control. Three days later the culture medium was replaced with fresh medium containing the appropriately diluted drug. Six days following the initial administration of the test compound, the cell culture supernatant was collected, treated with pronase and then used in a quantitative qPCR TaqMan assay. Antiviral activity was calculated from the reduction in HBV DNA levels (IC50). Cell Titer 96 ®AQueous One Solution Cell Proliferation kit (Promega, Madison, Wis.) was used to measure cell viability which is used to calculate toxicity (TC50). The therapeutic index (TI) was calculated as TC50/IC50

[2] = test system: Influenza Virus (H7N7); assay: microbe, parasite or virus in culture; type: cell-based, avian influenza virus (Fowl Plaque Virus; details: unidentified influenza virus, H7N7, A549, 16 h; for inhibition at 30 µM: read-out: Antiviral Activity % Inhibition
[3] = test system: HCMV AD 169-GFP; assay: microbe, parasite or virus in culture; type: cell-based, Human Cytomegalovirus; details: Human betaherpesvirus 5, Fibroblast, 168 h, read-out: Antiviral Activity EC50
[4] = in vitro; details: human
[5] = test system: HCV subgenomic replicon of genotype 1b; assay: microbe, parasite or virus in culture; type: cell-based; details: Hepatitis C virus, 24 h, read-out: Antiviral Activity EC50/nM
[6] = test system: human PBMCs; assay: MTS cytotoxicity in human PBMCs; details: seven days
[7] = test system: ET cell line (luc-ubi-neo/ET), Huh7; assay: CytoTox-1 cytotoxicity in ET cells; details: 24 h, cell unit μM
[8] = test system: HIV-191US005; assay: Anti-HIV efficacy in fresh human PBMCs (RT activity and p24 ELISA); type: cell-based, HIV-1; details: Human immunodeficiency virus 1, PBMC, 168 h
[9] = test system: RSV Strain Long; assay: microbe, parasite or virus in culture; type: cell-based; details: human respiratory syncytial virus, Vero, read-out: Antiviral Activity EC50
[10] = target: dihydroorotate dehydrogenase (DHODH) (Homo sapiens, UniProt Q02127); assay: DHODH inhibition, in vitro assay; type: biochemical
[11] = test system: DENV Type 2 (New Guinea); assay: microbe, parasite or virus in culture; type: cell-based; details: Dengue virus, Vero C1008, read-out: Antiviral Activity EC50
[12] = Cell viability in HepG2-2.2.15 cells (Cell Titer 96); type: cell-based; details: human, six days, read-out: TC50
Method: Anti-HBV assay was performed as described in Korba, B F and Milman, G., 1991 (A cell culture assay for compound which inhibits hepatitis B virus replication. Antiviral Res. 15: 217-228) and in Korba, B F and Gerin, J L., 1992 (Use of a standardized cell culture assay to assess activities of nucleoside analogs again hepatitis B virus replication. Antiviral Res. 19: 55-70) with modifications to measure extracellular HBV DNA copy with real-time PCR (qPCR/TaqMan). Briefly, HepG2-2.2.15 cells were plated in 96-well microtiter plates. Only the interior wells were utilized to reduce “edge effects” observed during cell culture; the exterior wells were filled with complete medium to help minimize sample evaporation. After 16-24 hours the confluent monolayer of HepG2-2.2.15 cells was washed and the medium was replaced with complete medium containing various concentrations of a test compound in triplicate. 3TC was used as the positive control, while media alone was added to cells as a negative control. Three days later the culture medium was replaced with fresh medium containing the appropriately diluted drug. Six days following the initial administration of the test compound, the cell culture supernatant was collected, treated with pronase and then used in a quantitative qPCR TaqMan assay. Antiviral activity was calculated from the reduction in HBV DNA levels (IC50). Cell Titer 96 ®AQueous One Solution Cell Proliferation kit (Promega, Madison, Wis.) was used to measure cell viability which is used to calculate toxicity (TC50). The therapeutic index (TI) was calculated as TC50/IC50

[13] = test system: YFV Strain 17D; assay: microbe, parasite or virus in culture; type: cell-based; details: Yellow fever virus, Vero, read-out: Antiviral Activity EC50
[14] = test system: WNV Strain NY-99; assay: microbe, parasite or virus in culture; type: cell-based; details: West Nile virus, Vero, read-out: Antiviral Activity EC50
[15] = test system: Ebola Virus; assay: microbe, parasite or virus in culture; type: cell-based; details: Zaire ebolavirus, Vero, read-out: Antiviral Activity % Inhibition
[16] = in vitro; details: African green monkey
[17] = in vitro; details: African green monkey; remark: listed apart in the source
[18] = in vitro; details: African green monkey; remark: listed apart in the source
[19] = test system: Vero cells; details: African green monkey
[20] = test system: Vero cells; details: African green monkey; remark: listed apart in the source
[21] = test system: Vero cells; details: African green monkey; remark: listed apart in the source
[22] = 144 h, HepG2 2.2.15 cells, HBV DNA, six days
[23] = Endpoint RT, seven days, read-out: EC50/nM
[24] = Endpoint RT, seven days, read-out: EC90/nM
[25] = Endpoint p24, seven days, read-out: EC50/nM
[26] = Endpoint p24, seven days, read-out: EC90/nM
[27] = Table 3, read-out: DHODH IC50/nM
[28] = Table 4, read-out: DHODH IC50/nM
[29] = Table 5, read-out: DHODH IC50/nM
[30] = Table 6, read-out: DHODH IC50/nM
[31] = Table 7, read-out: DHODH IC50/nM
[32] = Table 8, read-out: DHODH IC50/nM
[33] = Table 2, read-out: DHODH IC50/nM

Sequence of dihydroorotate dehydrogenase (DHODH) (Q02127 whole entry): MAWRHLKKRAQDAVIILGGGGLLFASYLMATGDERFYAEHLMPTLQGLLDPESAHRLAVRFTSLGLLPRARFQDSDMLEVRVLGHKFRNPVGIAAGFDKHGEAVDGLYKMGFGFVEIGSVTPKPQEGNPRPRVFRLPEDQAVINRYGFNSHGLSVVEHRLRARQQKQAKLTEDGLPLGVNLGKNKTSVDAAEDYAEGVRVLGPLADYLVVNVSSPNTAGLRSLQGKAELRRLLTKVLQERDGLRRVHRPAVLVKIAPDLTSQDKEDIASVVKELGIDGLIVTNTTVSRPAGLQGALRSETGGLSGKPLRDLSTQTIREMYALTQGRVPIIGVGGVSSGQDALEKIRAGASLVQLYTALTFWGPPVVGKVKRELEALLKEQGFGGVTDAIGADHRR

O=C(Nc1c(F)c(F)c(-c2cccc(OC(F)(F)F)c2)c(F)c1F)c1ccsc1C(=O)O [Compound 1, 3-(2,3,5,6-Tetrafluoro-3′-trifluoromethoxy-biphenyl-4-ylcarbamoyl)-thiophene-2-carboxylic acid]
pEC50 [1, 22]: 5.32 | pEC50 [2]: ~5.82 | pEC50 [3]: 6.11 | CC50 at 7 days [4]: > 10000 nM | EC50 [5]: 23 nM | TC50/nM [6]: >100000 nM | TC50 [7]: >100 µM | EC50 [8, 23]: 120 nM | EC90 [8, 24]: 300 nM | EC50 [8, 25]: 170 nM | EC90 [8, 26]: 300 nM | pEC50 [9]: 5.68 | pIC50 [10]: > 7.70 | IC50 [10, 27]: < 20 nM | IC50 [10, 28]: < 20 nM | IC50 [10, 29]: < 20 nM | IC50 [10, 30]: < 20 nM | IC50 [10, 31]: < 20 nM | IC50 [10, 32]: < 20 nM | IC50 ([10]; Table 10, read-out: DHODH IC50/nM): < 20 nM | IC50 ([10]; read-out: DHODH IC50/nM, Table 2): < 20 nM | pEC50 [11]: 7.14 | CC50 at 6 days [12]: > 10000 nM | pEC50 [13]: 6.63 | pEC50 [14]: 6.13

O=C(O)C1=C(C(=O)Nc2c(F)cc(-c3ccccc3Cl)cc2F)CSC1 [Compound 2, 4-(2′-Chloro-3,5-difluoro-biphenyl-4-ylcarbamoyl)-2,5-dihydro-thiophene-3-carboxylic acid]
EC50 [5]: 680 nM | TC50/nM [6]: >100000 nM | TC50 [7]: >100 µM | EC50 [8, 23]: 920 nM | EC90 [8, 24]: 2590 nM | EC50 [8, 25]: 1380 nM | EC90 [8, 26]: 2770 nM | IC50 ([10]; DHODH IC50/nM, Table 1): < 20 nM | IC50 [10, 33]: < 20 nM

O=C(O)C1=C(C(=O)Nc2ccc(OCc3c(F)cccc3Cl)c(Cl)c2)CCC1 [Compound 3, 2-[3-Chloro-4-(2-chloro-6-fluoro-benzyloxy)-phenylcarbamoyl]-cyclopent-1-enecarboxylic acid]
pEC50 [1, 22]: < 5.00 | EC50 [5]: 500 nM | TC50/nM [6]: 44800 nM | EC50 [8, 23]: 190 nM | EC90 [8, 24]: 700 nM | EC50 [8, 25]: 190 nM | EC90 [8, 26]: 630 nM | pEC50 [9]: < 5.00 | IC50 ([10]; DHODH IC50/nM, Table 1): < 20 nM | IC50 ([10]; DHODH IC50/nM, Table 7): < 20 nM | IC50 [10, 33]: < 20 nM | IC50 [10, 27]: < 20 nM | IC50 [10, 28]: < 20 nM | IC50 [10, 29]: < 20 nM | IC50 [10, 30]: < 20 nM | pEC50 [11]: 7.08 | CC50 at 6 days [12]: > 10000 nM | pEC50 [13]: 5.66 | pEC50 [14]: < 5.00

O=C(O)C1=C(C(=O)Nc2c(F)c(F)c(-c3cccc(OC(F)(F)F)c3)c(F)c2F)CCC1 [Compound 4, 2-(2,3,5,6-Tetrafluoro-3′-trifluoromethoxy-biphenyl-4-ylcarbamoyl)-cyclopent-1-enecarboxylic acid]
pEC50 ([1]; HepG2 2.2.15, 144 h): < 5.00 | pEC50 [2]: ~5.52 | inhibition at 30 µM [2]: > 90% | EC50 [5]: 80 nM | TC50/nM [6]: 42400 nM | EC50 [8, 23]: 60 nM | EC90 [8, 24]: 210 nM | EC50 [8, 25]: 80 nM | EC90 [8, 26]: 240 nM | pEC50 [9]: 5.67 | IC50 ([10]; DHODH IC50/nM, Table 1): < 20 nM | IC50 ([10]; DHODH IC50/nM, Table 2): < 20 nM | IC50 ([10]; DHODH IC50/nM, Table 3): < 20 nM | IC50 ([10]; DHODH IC50/nM, Table 4): < 20 nM | IC50 ([10]; DHODH IC50/nM, Table 7): < 20 nM | IC50 [10, 29]: < 20 nM | IC50 [10, 30]: < 20 nM | IC50 [10, 32]: < 20 nM | IC50 ([10]; Table 9, read-out: DHODH IC50/nM): < 20 nM | pEC50 [11]: 7.17 | CC50 at 6 days [12]: > 10000 nM | inhibition at 31.6 µM [15]: > 90% | inhibition at 100 µM [15]: > 98% | pEC50 [13]: 6.17 | pEC50 [14]: < 5.00

COc1cccc(-c2ccc(NC(=O)C3=C(C(=O)O)CCC3)c(F)c2)c1 [Compound 6, 2-(3-Fluoro-3′-methoxy-biphenyl-4-ylcarbamoyl)-cyclopent-1-enecarboxylic acid]
inhibition at 30 µM [2]: > 80% | EC50 [5]: 4640 nM | TC50/nM [6]: >100000 nM | EC50 ([8]; read-out: EC50/nM, Endpoint RT, seven days): 2190 nM | EC50 ([8]; read-out: EC50/nM, Endpoint p24, seven days): 1970 nM | EC90 ([8]; read-out: EC90/nM, Endpoint RT, seven days): 6110 nM | EC90 ([8]; read-out: EC90/nM, Endpoint p24, seven days): 6250 nM | inhibition at 31.6 µM [15]: 90% | inhibition at 100 µM [15]: > 98%

O=C(Nc1c(F)cc(-c2cccc(OC(F)(F)F)c2)cc1F)c1ccsc1C(=O)O [Compound 17, 3-(3,5-difluoro-3′-(trifluoromethoxy)biphenyl-4-ylcarbamoyl)thiophene-2-carboxylic acid]
pEC50 [1, 22]: 5.19 | pEC50 [2]: ~5.52 | CC50 [16]: > 10000 nM | CC50 [17]: > 10000 nM | CC50 [18]: > 10000 nM | pEC50 [9]: < 5.00 | IC50 ([10]; DHODH IC50/nM, Table 5): < 20 nM | IC50 [10, 27]: < 20 nM | IC50 [10, 28]: < 20 nM | IC50 [10, 30]: < 20 nM | IC50 [10, 31]: < 20 nM | IC50 [10, 32]: < 20 nM | pEC50 [11]: < 5.00 | CC50 at 6 days [12]: > 10000 nM | pEC50 [13]: 5.65 | pEC50 [14]: 5.19

O=C(O)C1=C(C(=O)Nc2ccc(OCc3c(F)cccc3Cl)c(F)c2)CCC1 [Compound 21, 2-[4-(2-Chloro-6-fluoro-benzyloxy)-3-fluoro-phenylcarbamoyl]-cyclopent-1-enecarboxylic acid]
EC50 [5]: 1740 nM | TC50 [7]: >30 µM | IC50 [10, 33]: 20 to 200 nM

O=C(O)C1=C(C(=O)Nc2cc(Cl)c(OCc3c(F)cccc3Cl)c(Cl)c2)CCC1 [Compound 22, 2-[3,5-Dichloro-4-(2-chloro-6-fluoro-benzyloxy)-phenylcarbamoyl]-cyclopent-1-enecarboxylic acid]
EC50 [5]: 1760 nM | TC50 [7]: >30 µM | IC50 [10, 33]: 20 to 200 nM

NC(=O)c1ncn([C@@H]2O[C@H](CO)[C@@H](O)[C@H]2O)n1 [Ribavirin, reference compound]
TC50 [19]: >100 µg/mL | TC50 [20]: >100 µg/mL | EC50 [9]: 7.95 µg/mL | TC50 [21]: >100 µg/mL | EC50 [11]: 26.5 µg/mL | EC50 [13]: 7.33 µg/mL | EC50 [14]: 22 µg/mL
